Laboratory results taken from patent US20060069132A1, “Azolecarboxamide herbicides” (priority 2004, published 2006).

Legend:
Surinam grass = assay: Test B pre-/postemergence herbicide test; assay type: in vivo, Urochloa decumbens
How it was run: (§1)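 Response was scored visually 13 to 15 days after treatment against untreated greenhouse controls, 0 meaning no effect and 100 complete control. Formulations (solvent mixture plus surfactant) went onto soil after planting, onto foliage of 1- to 4-leaf plants, and onto 2-leaf plants in a flooded paddy set including rice and barnyardgrass.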

cocklebur = assay: Test B pre-/postemergence herbicide test; assay type: in vivo, Xanthium strumarium
How it was run: (§2)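 Plants compared with untreated controls 13–15 days post-treatment and given a visual 0–100 injury score. Applications: preemergence to seeds; postemergence at 1- to 4-leaf (2–18 cm); paddy species flooded, 2-leaf stage. Vehicle non-phytotoxic, surfactant included.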

corn = assay: Test B pre-/postemergence herbicide test; assay type: in vivo, Zea mays
How it was run: as §1

large crabgrass = assay: Test B pre-/postemergence herbicide test; assay type: in vivo, Digitaria sanguinalis
How it was run: as §1

giant foxtail = assay: Test B pre-/postemergence herbicide test; assay type: in vivo, Setaria faberi
How it was run: as §1

lambsquarters = assay: Test B pre-/postemergence herbicide test; assay type: in vivo, Chenopodium album
How it was run: as §1

morningglory = assay: Test B pre-/postemergence herbicide test; assay type: in vivo, Ipomoea coccinea
How it was run: as §2

pigweed = assay: Test B pre-/postemergence herbicide test; assay type: in vivo, Amaranthus retroflexus; conditions: for Pigweed plant response rating (0 to 100 scale) / Plant response rating, Pigweed: preemergence
How it was run: as §1

velvetleaf = assay: Test B pre-/postemergence herbicide test; assay type: in vivo, Abutilon theophrasti
How it was run: as §1

blackgrass = assay: Test B postemergence herbicide test; assay type: in vivo, Alopecurus myosuroides
How it was run: (§3)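 Formulated test chemicals went onto postemergence plants measuring 2 to 18 cm, at one to four leaves. For the paddy assay, species had reached two leaves. Scoring took place 13–15 days later by eye, relative to untreated plants, using 0 for no effect up to 100 for full control.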

wheat = assay: Test B postemergence herbicide test; assay type: in vivo, Triticum aestivum; design: key to Wheat plant response rating: 0 = no effect, 100 = complete control
How it was run: as §3

wild oat = assay: Test B postemergence herbicide test; assay type: in vivo, Avena fatua
How it was run: as §3

rice = assay: Test B flooded paddy test; assay type: in vivo, Oryza sativa; conditions: 1000 g ai/ha, scale 0 to 100 (0 no effect, 100 complete control)
How it was run: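 Postemergence plants were sprayed with formulated test chemicals at 2 to 18 cm height (1- to 4-leaf stage); paddy species were grown to the 2-leaf stage. After 13 to 15 days in a greenhouse, injury was rated visually against untreated controls on a 0–100 scale (0 = no effect, 100 = complete control).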

[1] = system: small flower umbrella sedge; assay: Test B flooded paddy test; assay type: in vivo, Cyperus difformis; conditions: 1000 g ai/ha, scale 0 to 100 (0 no effect, 100 complete control)
How it was run: as §3

barnyardgrass = assay: Test B flooded paddy test; assay type: in vivo, Echinochloa crus-galli; conditions: 1000 g ai/ha, scale 0 to 100 (0 no effect, 100 complete control)
How it was run: as §3

[2] = 125 g ai/ha, 0 is no effect, 100 is complete control, preemergence
[3] = 125 g ai/ha, visual rating, scale 0 (no effect) to 100 (complete control), postemergence
[4] = Postemergence, 500 g ai/ha, scale 0 (no effect) to 100 (complete control)
[5] = 125 g ai/ha; 0 is no effect, 100 is complete control; preemergence
[6] = 125 g ai/ha; visual rating, scale 0 (no effect) to 100 (complete control); postemergence
[7] = postemergence, 500 g ai/ha; scale 0 to 100, 0 is no effect, 100 is complete control
[8] = 125 g ai/ha, 0 = no effect, 100 = complete control, preemergence
[9] = 500 g ai/ha, visual rating 0-100, 0 no effect, 100 complete control, preemergence
[10] = postemergence, 125 g ai/ha, visual rating, scale 0 (no effect) to 100 (complete control)
[11] = postemergence, 500 g ai/ha, visual rating, scale 0 (no effect) to 100 (complete control)
[12] = 125 g ai/ha; 0 = no effect, 100 = complete control; preemergence
[13] = 500 g ai/ha; visual rating 0-100, 0 no effect, 100 complete control; preemergence
[14] = postemergence, 125 g ai/ha; visual rating, scale 0 (no effect) to 100 (complete control)
[15] = postemergence, 500 g ai/ha; visual rating, scale 0 (no effect) to 100 (complete control)
[16] = 125 g ai/ha, 0 = no effect, 100 = complete control
[17] = 500 g ai/ha, visual rating, 0 = no effect, 100 = complete control, preemergence
[18] = postemergence, 500 g ai/ha, scale 0 to 100, 0 is no effect, 100 is complete control
[19] = 500 g ai/ha; visual rating, 0 = no effect, 100 = complete control; preemergence

## CCc1nn(C(C)(C)CC)nc1C(=O)Nc1cccc(C(=O)N(C)C)c1 [Compound 372]
Surinam grass; [2]
  Plant response rating (0 to 100 scale), Surinam Grass: 50
Surinam grass; [3]
  Surinam Grass plant response rating: 10
Surinam grass; [4]
  Surinam Grass plant response rating: 10
cocklebur; [5]
  Plant response rating (0 to 100 scale), Cocklebur: 10
cocklebur; [6]
  Cocklebur plant response rating: 20
cocklebur; [7]
  Cocklebur plant response rating: 30
corn; [5]
  Plant response rating (0 to 100 scale), Corn: 60
corn; [6]
  Corn plant response rating: 20
corn; [7]
  Corn plant response rating: 60
Large crabgrass; [5]
  Plant response rating (0 to 100 scale), Crabgrass, Large: 80
Large crabgrass; [6]
  Crabgrass, Large plant response rating: 10
Large crabgrass; [7]
  Crabgrass, Large plant response rating: 20
Giant foxtail; [5]
  Plant response rating (0 to 100 scale), Foxtail, Giant: 60
Giant foxtail; [6]
  Foxtail, Giant plant response rating: 30
Giant foxtail; [7]
  Foxtail, Giant plant response rating: 50
lambsquarters; [2]
  Plant response rating (0 to 100 scale), Lambsquarters: 100
lambsquarters; [3]
  Lambsquarters plant response rating: 40
lambsquarters; [4]
  Lambsquarters plant response rating: 90
morningglory; [2]
  Plant response rating (0 to 100 scale), Morningglory: 10
morningglory; [3]
  Morningglory plant response rating: 20
morningglory; [4]
  Morningglory plant response rating: 60
pigweed; [3]
  Pigweed plant response rating: 40
pigweed; [4]
  Pigweed plant response rating: 80
velvetleaf; [2]
  Plant response rating (0 to 100 scale), Velvetleaf: 10
velvetleaf; [3]
  Velvetleaf plant response rating: 10
velvetleaf; [4]
  Velvetleaf plant response rating: 30
blackgrass; [6]
  Blackgrass plant response rating: 10
blackgrass; [7]
  Blackgrass plant response rating: 30
wheat; [3]
  Wheat plant response rating: 0
wheat; 500 g ai/ha, scale 0 to 100, 0 no effect, 100 complete control, preemergence
  Wheat plant response rating: 90
wheat; [4]
  Wheat plant response rating: 10
Wild oat; [3]
  Oat, Wild plant response rating: 0
Wild oat; [4]
  Oat, Wild plant response rating: 30
rice
  Rice plant response rating: 90
[1]
  Sedge, Umbrella plant response rating: 90
barnyardgrass
  Barnyardgrass plant response rating: 90

## C=CCNC(=O)c1cccc(NC(=O)c2sc(C(C)(C)C)nc2C)c1 [Compound 202]
Surinam grass; [8]
  Surinam Grass plant response rating (0 to 100 scale): 0
Surinam grass; [9]
  Plant response rating, Surinam Grass: 60
Surinam grass; [10]
  Surinam Grass plant response rating: 10
Surinam grass; [11]
  Surinam Grass plant response rating: 10
cocklebur; [12]
  Cocklebur plant response rating (0 to 100 scale): 0
cocklebur; [13]
  Plant response rating, Cocklebur: 10
cocklebur; [14]
  Cocklebur plant response rating: 30
cocklebur; [15]
  Cocklebur plant response rating: 40
corn; [12]
  Corn plant response rating (0 to 100 scale): 0
corn; [13]
  Plant response rating, Corn: 20
corn; [14]
  Corn plant response rating: 10
corn; [15]
  Corn plant response rating: 10
Large crabgrass; [12]
  Crabgrass, Large plant response rating (0 to 100 scale): 60
Large crabgrass; [13]
  Plant response rating, Crabgrass, Large: 100
Large crabgrass; [14]
  Crabgrass, Large plant response rating: 0
Large crabgrass; [15]
  Crabgrass, Large plant response rating: 10
Giant foxtail; [12]
  Foxtail, Giant plant response rating (0 to 100 scale): 10
Giant foxtail; [13]
  Plant response rating, Foxtail, Giant: 90
Giant foxtail; [14]
  Foxtail, Giant plant response rating: 10
Giant foxtail; [15]
  Foxtail, Giant plant response rating: 10
lambsquarters; [8]
  Lambsquarters plant response rating (0 to 100 scale): 30
lambsquarters; [9]
  Plant response rating, Lambsquarters: 100
lambsquarters; [10]
  Lambsquarters plant response rating: 50
lambsquarters; [11]
  Lambsquarters plant response rating: 50
morningglory; [8]
  Morningglory plant response rating (0 to 100 scale): 0
morningglory; [9]
  Plant response rating, Morningglory: 30
morningglory; [10]
  Morningglory plant response rating: 20
morningglory; [11]
  Morningglory plant response rating: 40
pigweed; [16]
  Pigweed plant response rating (0 to 100 scale): 10
pigweed; 500 g ai/ha, visual rating 0-100, 0 no effect, 100 complete control
  Plant response rating, Pigweed: 90
pigweed; [10]
  Pigweed plant response rating: 30
pigweed; [11]
  Pigweed plant response rating: 40
velvetleaf; [8]
  Velvetleaf plant response rating (0 to 100 scale): 10
velvetleaf; [9]
  Plant response rating, Velvetleaf: 20
velvetleaf; [10]
  Velvetleaf plant response rating: 10
velvetleaf; [11]
  Velvetleaf plant response rating: 30
blackgrass; [14]
  Blackgrass plant response rating: 0
blackgrass; [15]
  Blackgrass plant response rating: 0
wheat; [10]
  Wheat plant response rating: 0
wheat; [11]
  Wheat plant response rating: 0
Wild oat; [10]
  Oat, Wild plant response rating: 10
Wild oat; [11]
  Oat, Wild plant response rating: 10
rice; visual rating, 13 to 15 days
  Rice plant response rating: 30
[1]; visual rating, 13 to 15 days
  Sedge, Umbrella plant response rating: 50
barnyardgrass; visual rating, 13 to 15 days
  Barnyardgrass plant response rating: 40

## CCn1nc(C(C)(C)C)cc1C(=O)Nc1cccc(OC(C)C)c1 [Compound 273]
Surinam grass; [8]
  Surinam Grass plant response rating (0 to 100 scale): 20
Surinam grass; [17]
  Plant response rating, Surinam Grass: 50
Surinam grass; [10]
  Surinam Grass plant response rating: 20
Surinam grass; [18]
  Surinam Grass plant response rating: 40
cocklebur; [12]
  Cocklebur plant response rating (0 to 100 scale): 0
cocklebur; [19]
  Plant response rating, Cocklebur: 0
cocklebur; [14]
  Cocklebur plant response rating: 20
cocklebur; [7]
  Cocklebur plant response rating: 80
corn; [12]
  Corn plant response rating (0 to 100 scale): 0
corn; [19]
  Plant response rating, Corn: 30
corn; [14]
  Corn plant response rating: 10
corn; [7]
  Corn plant response rating: 20
Large crabgrass; [12]
  Crabgrass, Large plant response rating (0 to 100 scale): 80
Large crabgrass; [19]
  Plant response rating, Crabgrass, Large: 100
Large crabgrass; [14]
  Crabgrass, Large plant response rating: 30
Large crabgrass; [7]
  Crabgrass, Large plant response rating: 50
Giant foxtail; [12]
  Foxtail, Giant plant response rating (0 to 100 scale): 50
Giant foxtail; [19]
  Plant response rating, Foxtail, Giant: 90
Giant foxtail; [14]
  Foxtail, Giant plant response rating: 10
Giant foxtail; [7]
  Foxtail, Giant plant response rating: 20
lambsquarters; [8]
  Lambsquarters plant response rating (0 to 100 scale): 70
lambsquarters; [17]
  Plant response rating, Lambsquarters: 100
lambsquarters; [10]
  Lambsquarters plant response rating: 60
lambsquarters; [18]
  Lambsquarters plant response rating: 90
morningglory; [8]
  Morningglory plant response rating (0 to 100 scale): 0
morningglory; [17]
  Plant response rating, Morningglory: 10
morningglory; [10]
  Morningglory plant response rating: 20
morningglory; [18]
  Morningglory plant response rating: 70
pigweed; [16]
  Pigweed plant response rating (0 to 100 scale): 70
pigweed; 500 g ai/ha, visual rating, 0 = no effect, 100 = complete control
  Plant response rating, Pigweed: 100
pigweed; [10]
  Pigweed plant response rating: 80
pigweed; [18]
  Pigweed plant response rating: 90
velvetleaf; [8]
  Velvetleaf plant response rating (0 to 100 scale): 10
velvetleaf; [17]
  Plant response rating, Velvetleaf: 40
velvetleaf; [10]
  Velvetleaf plant response rating: 40
velvetleaf; [18]
  Velvetleaf plant response rating: 70
blackgrass; [14]
  Blackgrass plant response rating: 50
blackgrass; [7]
  Blackgrass plant response rating: 70
wheat; [10]
  Wheat plant response rating: 30
wheat; [18]
  Wheat plant response rating: 40
Wild oat; [10]
  Oat, Wild plant response rating: 30
Wild oat; [18]
  Oat, Wild plant response rating: 50
rice
  Rice plant response rating: 40
[1]
  Sedge, Umbrella plant response rating: 80
barnyardgrass
  Barnyardgrass plant response rating: 60
